Laboratory results: PMC7956430, “Cytotoxicity and Apoptosis Effects of Curcumin Analogue (2E,6E)-2,6-Bis(2,3-Dimethoxybenzylidine) Cyclohexanone (DMCH) on Human Colon Cancer Cells HT29 and SW620 In Vitro” (Molecules, 2021)
Read-outs that look alike come from different tables or passages of the source. Each block holds one compound with its values, some of them ahead of it.

How the values were obtained:
SW620 [1] = assay: MTT cell viability assay; type: cell-based; conditions: Homo sapiens, SW-620
Method: (§1) Both SW620 and HT29 cells were grown in an incubator at 37 °C under 5% CO2 condition with their respective media. After the cells were harvested, they were counted and seeded at 1 × 10^5 cells per well in a 96-well plate overnight before being treated with DMCH. The following day, cells were treated with various concentrations of DMCH. […] Following incubation for the designated time period, 20 μL of (5 mg/mL) MTT 3-[4, 5-dimethylthiazol-2-yl]-2, 5 diphenyltetrazolium bromide (Merck, Kenilworth, NJ, USA) reagent was added into each well and then cells were incubated again for another 3 to 4 h. Next, the solution was removed and 100 μL of dimethyl sulfoxide (DMSO) was added into the wells. Afterward, the plate was read at 575 nm using a microtiter plate reader (μQuant, Bio-Tek Instrument, Winooski, VT, USA). The results were analysed as the percentage proliferation of the cells regarding the concentration of the sample treated. The following formula was used to determine the percentage of viable cells:
(§2) Percentage of viability (%) = (Absorbance of sample at 570 nm)/(Absorbance of control at 570 nm) × 100.

HT29 [2] = assay: MTT cell viability assay; type: cell-based; conditions: Homo sapiens, HT-29
Method: as §1, §2

Splenocyctes = assay: MTT cell viability assay on normal cells; type: cell-based; conditions: splenocytes
SW620 [3] = assay: Cell cycle analysis by flow cytometry; type: cell-based, human
Method: (§3) The effect of the DMCH sample on the cell cycle of HT29 and SW620 cells was investigated using flow cytometry cell cycle analysis. Cell cycle assay was carried out using the CycleTEST Plus DNA Reagent Kit according to the instructions (BD Pharmingen, San Diego, CA, USA). The cells were seeded at a density of 2.0 × 10^5 cells/well overnight. Then, cells were treated with different dosages of DMCH based on the concentration results of the MTT assay for 48 h and 72 h. After the treatment, cells were collected, and the pellet was resuspended in 200 μL of trypsin (solution A) and RNAse (solution B) for 10 min each followed by 250 μL of propidium iodide (solution C) for 15 min. After that, flow cytometric analysis was performed within 3 h using a Novocytes flow cytometer (ACEA Biosciences Inc., San Diego, CA, USA).

HT29 [4] = assay: Cell cycle analysis by flow cytometry; type: cell-based, human; conditions: HT29, 72 h
Method: as §3

SW620 [5] = assay: Acridine orange/propidium iodide (AO/PI) double staining assay; type: cell-based, human; conditions: SW620, DMCH at IC50, as incubation time increased (48 h, 72 h), p < 0.05
Method: (§4) Acridine orange/propidium iodide (AO/PI) double staining assay was performed on colon cancer cell lines to determine the mode of cell death microscopically. HT29 and SW620 cell lines were seeded in a 6-well plate at a density of 2 × 10^5 cells/well. Then, cells were treated with DMCH sample according to 48 h and 72 h concentrations. The treatment-free culture was used as a negative control, and cells were detached and collected at the end of each incubation time. Then, cells were washed with PBS and incubated with a 1:1 ratio of acridine orange (10 µg/mL) and propidium iodide (10 µg/mL). An amount of 10 µL of incubated suspension cells was placed on a slide and viewed immediately under a fluorescent microscope (Nikon FC-35DX, Nikon, Tokyo, Japan).

HT29 [6] = assay: as above; type: cell-based, human; conditions: HT29, DMCH at IC50, as incubation time increased (48 h, 72 h), p < 0.05
Method: as §4

[7] = tested on: apoptosis-related proteins in SW620; assay: Human apoptosis proteome profiler; type: cell-based; conditions: SW620, DMCH (IC50) for 48 h
Method: (§5) Colon cancer cell lines SW620 and HT29 that had been treated with DMCH for 48 h were investigated for the expression profiles of apoptosis-related proteins. This was conducted using the Human Apoptosis Array Kit (R&D Systems, Minneapolis, MN, USA). Firstly, the proteins from both cells were extracted using 600 µL of RIPA buffer (50 mM Tris-HCl, 150 mM NaCl, 1.0% TritonX-100, 0.5% sodium deoxycholate, 0.1% SDS) supplemented with 10 mg of pre-made protease inhibitor cocktails (Roche, Mississauga, ON, Canada). After that, the proteins were quantified using the Bradford assay (Sigma, St. Louis, MO, USA). Then, membranes were blocked by blocking buffer for an hour. At the same time, the proteins were prepared with the addition of 1 mL Lysis Buffer 17 to the protein lysate. The prepared protein was loaded onto the membrane and was incubated at 4 °C overnight. The following day, the membranes were washed three times with 20 mL of wash buffer provided in the kit. Next, the membrane was transferred into a 4-well multi-dish that contains the reconstituted detection antibody cocktails, and it was incubated for an hour on a shaker. Then, the membrane was again washed with a washing buffer three times. Two millilitres of Streptavidin-HRP was added onto the membrane followed by incubation for 30 min. Then, the membrane was washed three times. Afterward, the membrane was loaded with 1.0 mL of Chemi Reagent Mix and then the membrane was scanned using ChemiDoc XRS (Bio-Rad, Hercules, CA, USA).

[8] = tested on: apoptosis-related proteins in HT29; assay: Human apoptosis proteome profiler; type: cell-based; conditions: HT29, DMCH (IC50) for 48 h
Method: as §5

SW620 [9] = assay: Annexin V/FITC assay (flow cytometry); type: cell-based, human; conditions: SW620, 72 h, DMCH at IC50
Method: (§6) The apoptosis effect on HT29 and SW620 cells was studied using an Annexin V fluorescence kit (BD Pharmingen, San Diego, CA, USA) according to the manufacturer’s instructions without any modifications. Briefly, cells were seeded for 24 h at a density of 2.0 × 10^5 cells per well in a 6-well plate. Then, the seeded cells were treated with the designated concentrations for 48 h and 72 h. After the 48 h (or 72 h) of treatment, the treated cells were harvested and collected as a pellet. Next, the pellet was resuspended in 400 μL of binding buffer and stained with 5 μL of FITC-Annexin-V and 5 μL of PI provided in the kit. Afterward, the cells were analysed using a Novocyctes flow cytometer (ACEA Biosciences Inc., San Diego, CA, USA).

HT29 [10] = assay: Annexin V/FITC assay (flow cytometry); type: cell-based, human; conditions: HT29, 72 h, DMCH at IC50
Method: as §6

[11] = Splenocyte, 24 h, read-out: IC50
[12] = Splenocyte, 48 h, read-out: IC50
[13] = Splenocyte, 72 h, read-out: IC50

- IC50 (SW620 [1]; SW620, 24 h, read-out: IC50): > 30 µM
- IC50 (SW620 [1]; SW620, 48 h, read-out: IC50): 7.5 ± 1.19 µM
- IC50 (SW620 [1]; SW620, 72 h, read-out: IC50): 5 ± 0.157 µM
- IC50 (SW620 [1]; SW620, as printed in abstract, time not stated, read-out: inhibitory concentration (IC50)): 7.5 ± 1.19 µg/mL
- IC50 (HT29 [2]; HT29, 24 h, read-out: IC50): > 30 µM
- IC50 (HT29 [2]; HT29, 48 h, read-out: IC50): 9.8 ± 0.553 µM
- IC50 (HT29 [2]; HT29, 72 h, read-out: IC50): 8.2 ± 0.761 µM
- IC50 (HT29 [2]; HT29, as printed in abstract, time not stated, read-out: inhibitory concentration (IC50)): 9.8 ± 0.55 µg/mL
SMILES: COc1cccc(/C=C2\CCC/C(=C\c3cccc(OC)c3OC)C2=O)c1OC [DMCH, (2E,6E)-2,6-bis(2,3-dimethoxybenzylidene) cyclohexanone]
- IC50 (Splenocyctes; [11]): > 30 µM
- IC50 (Splenocyctes; [12]): > 30 µM
- IC50 (Splenocyctes; [13]): > 30 µM
- IC50 (Splenocyctes; 24 h): no IC50 values observed
- IC50 (Splenocyctes; 48 h): no IC50 values observed
- IC50 (Splenocyctes; 72 h): no IC50 values observed
- cells in sub-G0/G1 phase (SW620 [3]; SW620, 48 h): 0.15 ± 0.05%
- cells in sub-G0/G1 phase (SW620 [3]; SW620, 72 h): 73.24 ± 1.65%
- cells in sub-G0/G1 phase (HT29 [4]): 10.96± 0.94%
- proportion of cells that exhibited early apoptosis and late apoptosis (SW620 [5]): significantly higher
- proportion of cells that exhibited early apoptosis and late apoptosis (HT29 [6]): significantly higher
- Bad Regulation [7]: Up
- Bax Regulation [7]: Up
- Bcl x Regulation [7]: Up
- Cytochrome c Regulation [7]: Down
- Livin Regulation [7]: Down
- Pro caspase 3 Regulation [7]: Down
- SMAC/Diablo Regulation [7]: Down
- Cytochrome c Relative Intensity (Fold Change) ([7]; vs control): −0.900 ± 0.006
- Livin Relative Intensity (Fold Change) ([7]; vs control): −0.900 ± 0.040
- SMAC/Diablo Relative Intensity (Fold Change) ([7]; vs control): −0.900 ± 0.070
- Bad Regulation [8]: Up
- Bax Regulation [8]: Up
- Bcl x Regulation [8]: Down
- Cytochrome c Regulation [8]: Up
- Livin Regulation [8]: Down
- Pro caspase 3 Regulation [8]: Up
- SMAC/Diablo Regulation [8]: Up
- early and late apoptotic/necrotic cells (SW620 [9]): 15.70 ± 1.03%
- early and late apoptotic/necrotic cells (HT29 [10]): 8.83 ± 0.42%

- IC50 (SW620 [1]; SW620, 24 h, read-out: IC50): > 30 µM
- IC50 (SW620 [1]; SW620, 48 h, read-out: IC50): 18.6 ± 0.321 µM
- IC50 (SW620 [1]; SW620, 72 h, read-out: IC50): 15.7 ± 1.52 µM
- IC50 (HT29 [2]; HT29, 24 h, read-out: IC50): > 30 µM
- IC50 (HT29 [2]; HT29, 48 h, read-out: IC50): 26.7 ± 1.53 µM
- IC50 (HT29 [2]; HT29, 72 h, read-out: IC50): 20.7 ± 1.16 µM
SMILES: COc1cc(/C=C/C(=O)CC(=O)/C=C/c2ccc(O)c(OC)c2)ccc1O [curcumin]
- IC50 (Splenocyctes; [11]): > 30 µM
- IC50 (Splenocyctes; [12]): > 30 µM
- IC50 (Splenocyctes; [13]): > 30 µM
